Test results from US12527773B2, “Flavi-block: a pan-flavivirus inhibitor” (Baden-Württemberg Stiftung GmbH, priority 2020, dated 2026).
Where a name gives a salt, the structure may show the parent alone.

Key:
[1] = Metabolic stability in mouse liver microsomes; details: male, Balb/c, mouse, microsomes, pH 7.4
Protocol: Microsomal incubations were carried out in 96-well plates in 5 aliquots of […] each (one for each time point). […] Control incubations were performed replacing the NADPH-cofactor system with PBS. […] Incubations were performed in duplicates. Five time points over 40 minutes had been analyzed. The reactions were stopped by adding 12 volumes of 90% acetonitrile-water to incubation aliquots, followed by protein sedimentation by centrifuging at 5500 rpm for 3 minutes. […]. Supernatants were analyzed using the HPLC system coupled with tandem mass spectrometer.
The elimination constant (kel), half-life (t½) and intrinsic clearance (Clint) were determined in plot of In(AUC) versus time, using linear regression analysis (In order to indicate the quality of the linear regression analysis, the R (correlation coefficient) values are provided. In some cases, the last time point is excluded from the calculations to ensure acceptable logarithmic linearity of decay): […]

[2] = tested on: hematopoietic stem cell formation; experiment: Effect on zebrafish hematopoietic stem cell formation (in situ runx-1+c-myb); format: in vivo; details: 36 hpf
Protocol: Zebrafish embryos were exposed 20-30 min after fertilization to differing concentrations of the compounds C10 and D1 (5 μM; 15 μM; 25 μM) or to medium containing the corresponding solvent (DMSO) concentration. Therefore, 3-5 embryos were sorted into each of three wells of a 96 well plate containing 200 μl of medium. For phenotype analysis, triplicates were imaged after 6-7 h post fertilization (hpf) at approximately shield stage, after 24 hpf and after 48 hpf. Dead +unfertilized embryos were removed. For imaging at 24 hpf +48 hpf; embryos were anesthetized using MESAB. (A) Diagramm showing the percentage of embryos at each time point either developing normal (blue color) or with the indicated phenotype. (B) representative images of embryos treated with the indicated compounds, or controls at the respective time points. (C) To additionally elucidate the influence on hematopoietic stem cell formation, approx. half of the embryos were sampled at 36 hpf and an in situ staining for runx-1+c-myb was performed. Shown are representative images of hematopoietic stem cell formation with the treatment indicated.
Embryos were exposed 20-30 min after fertilization to differing concentrations of the compounds C10 and D1 (5 μM; 15 μM; 25 μM) or to medium containing the corresponding solvent (DMSO) concentration. […]

DENV capsid protein = target: T1, DENV capsid protein (Dengue virus type 2, UniProt P29990); experiment: Crosslinking of recombinant DENV capsid protein (Western blot); format: biochemical
T1 construct: recombinant DENV capsid protein; made in house; host or cells: E. coli
Description: (§1) DSS was included as a positive control.

[3] = tested on: VP1 polyomavirus, LP1 HPV16, p24 HIV, BSA, GFP; experiment: Specificity in the cross-linking assay: other capsid and non-related proteins; format: biochemical
Protocol: as §1
To study the specificity of C10, capsid proteins of other viruses (VP1 polyomavirus, LP1 HPV16, and p24 HIV) as well as non-related proteins (BSA, GFP), were incubated in the so-called cross-linking assay, with DSS or C10.

in vitro = details: for % Remain. Mean: mouse plasma, 1 μM, 37° C.
Protocol: Plasma stability is defined as the percentage of parent compound remaining in plasma over the time.
Incubations were carried out in 5 aliquots of 70 μL each (one for each time point), in duplicates. Test compounds (1 μM, final DMSO concentration 1%) were incubated at 37° C. with shaking at 100 rpm. Five time points over 120 minutes have been analyzed. The reactions were stopped by adding 420 μL of acetonitrile-water mixture (90:10) with subsequent plasma proteins sedimentation by centrifuging at 5500 rpm for 5 minutes. Supernatants were analyzed by the HPLC system coupled with tandem mass spectrometer. The percentage of the test compounds remaining after incubation in plasma and their half-lives (T1/2) were calculated.

HCV = experiment: IC50 against HCV, RLuc reporter virus, re-infection of naïve Huh7.5 cells; format: cell-based, Hepatitis C virus; details: serial dilutions 20 to 0.0024 μM
Protocol: Concerning the SAR studies, 45 C10 derivatives were designed and synthesized, which were tested regarding both their antiviral activity against HCV and DENV, as well as their cytotoxicity. For the activity test, a construct including the viral genome and the reporter gene RLuc was used.
Huh7.5 cells were electroporated with the corresponding RNA, seeded in 96-well plate and treated during 24/48 h with C10 and the different compounds. The supernatant of virus-producing cells was used to re-infect naïve Huh7.5 cells, which were then lysed and their RLuc signal measured.

Huh7.5 cells = experiment: SAR test of C10 derivatives: cytotoxicity (CellTiterGlo); details: 48 h

CC(C)NCC(O)COc1cccc2ccccc12 (racemic) [Propranolol, (+,−) Propranolol hydrochloride, reference compound]
half-life at 2 mM [1]: 53.9 min

CCN1/C(=C/C=C/c2sc3cc(N)ccc3[n+]2CC)Sc2cc(N)ccc21.[I-] [D1, 6-amino-2-[(1E)-3-[(2Z)-6-amino-3-ethyl-2,3-dihydro-1,3-benzothiazol-2-ylidene]prop-1-en-1-yl]-3-ethyl-1,3-benzothiazol-3-ium iodide]
hematopoietic stem cell formation [2]: no difference to the WT embryos

O=C(CCCCCCC(=O)ON1C(=O)CCC1=O)ON1C(=O)CCC1=O [DSS, disuccinimidyl suberate, reference compound]
effect on oligomerization state of DENV capsid protein (DENV capsid protein): stabilizes mainly the dimer
crosslinking effect on other capsid and non-related proteins [3]: clear effect of monomer consumption and dimer formation

CC(C)[N+](C)(CCOC(=O)C1c2ccccc2Oc2ccccc21)C(C)C [Propantheline, Propantheline bromide, reference compound]
% Remain. Mean (in vitro; 0 min): 100%
% Remain. Mean (in vitro; 20 min): 66%
% Remain. Mean (in vitro; 40 min): 29%
% Remain. Mean (in vitro; 60 min): 13%
% Remain. Mean (in vitro; 120 min): 2%
half-life at 1 μM (in vitro; mouse, plasma): 20 min

CC(=O)Nc1ccc2c(c1)S/C(=C\C=C\c1sc3cc(NC(C)=O)ccc3[n+]1C)N2C [compound 45, 6-acetamido-2-((1E,3E)-3-(6-acetamido-3-methylbenzo[d]thiazol-2(3H)-ylidene)prop-1-en-1-yl)-3-methylbenzo[d]thiazol-3-ium iodide]
potency relative to C10 (IC50 against HCV) (HCV): 2.5 times
cytotoxicity (Huh7.5 cells): not cytotoxic at the concentrations in which they are antiviral

CCN1/C(=C/C(C)=C/c2sc3cc(NC(C)=O)ccc3[n+]2CC)Sc2cc(NC(C)=O)ccc21 [compound 46, 6-acetamido-2-((1E,3E)-3-(6-acetamido-3-ethylbenzo[d]thiazol-2(3H)-ylidene)-2-methylprop-1-en-1-yl)-3-ethylbenzo[d]thiazol-3-ium iodide]
potency relative to C10 (IC50 against HCV) (HCV): 1.5 times
cytotoxicity (Huh7.5 cells): not cytotoxic at the concentrations in which they are antiviral
